From patent US11351218B2, “Composition for preventing or treating glioblastoma comprising Platycodon grandiflorum A. De Candolle, Scutellaria baicalensis, Phellodendron amurense Ruprecht or Rubus coreanus” (University-Industry Cooperation Group of Kyung Hee …, priority 2019, dated 2022)

Assays:
LC3B and SQSTM1/p62 = assay: Immunoblot of autophagy-related proteins (LC3B, SQSTM1/p62) in U373MG cells; assay type: cell-based, human; conditions: 50 μM pre-incubation 30 minutes, then PD 10 μM 24 hours
Method: The effects of 26 kinds of herbal medicines, which influence the expression of autophagy-related proteins (LC3B and SQSTM1/p62) in total cell lysates from U87MG and U373MG cells, […] GAPDH was used as a loading control.
The human glioma cell lines, U87MG and U373MG, were cultured respectively in RPMI-1640 (Welgene) and DMEM (Welgene, Daegu, Korea) supplemented with 10% fetal bovine serum (FBS, JR Scientific) and 1% antibiotics (Ab, Welgene). All cultures were maintained at 37° C. in a humidified incubator containing 5% CO2.
(§1) Cells treated with the concentrations and materials described in FIGS. 1-3B, 7, 8, 10, 13, 16, 18, and 20 were lysed in buffer containing 20 mM Tris-HCl (pH 7.5), 150 mM NaCl, 1 mM EDTA, 1 mM Na2EDTA, 1 mM EGTA, 1% NP-40, 1% sodium deoxycholate, 1 mM Na3VO4, 1 mM MPI, 1 mM PMSF, and PI cocktails for 15 to 20 minutes on ice. Cell lysates were separated by SDS-PAGE and transferred to nitrocellulose membranes. […] The protein bands were detected with ECL western Blotting Substrate (Thermo Fisher Scientific, Waltham, Mass., USA).
To discover novel autophagy inhibitors, 26 herbal medicines were screened by western blot analysis. […] Therefore, the effect of each herbal medicine on the change in the p62 level was evaluated, given that a rise in the amount of p62 is related to the inhibition of autophaic flux.

p-ERK = assay: Immunoblot of ERK phosphorylation, U373MG cells; assay type: cell-based, human; conditions: 50 μM pre-incubation 30 minutes, then PD 10 μM 24 hours
Method: FIGS. 10A to 10D show the results that PD-mediated autophagy inhibition is independent of mTOR and MAPK signaling pathways. FIGS. 10A to 10C show the results in which cells were treated with PD (0 μM, 0.5 μM, 1 μM, 5 μM, and 10 μM) for 24 hours. The immunoblot analyses for p-ULK1 (Ser757), ULK1, p-S6K (Thr389), p-AKT (Ser473), ERK2, P-ERK, p-JNK1, Beclin, and ATG7 were performed using lysates from GBMs. […] Total protein extracts were analyzed by immunoblot analyses for p-ERK, LC3B, and SQSTM1. GAPDH was used as an internal control.
as §1
Previous studies have shown that PD enhances autophagy via mTOR/MAPK pathway. […] It is known that mTORC1 activation, measured by S6K phosphorylation, inhibits autophagy initiation by phosphorylating the ULK1 (Ser 757). […]

In the case of `COc1cccc(-c2cc(=O)c3ccccc3o2)c1N` [PD98095, reference compound], the “levels of LC3B-II and p62” value (LC3B and SQSTM1/p62) is reported as “did not alter” and the “phosphorylation of ERK” value (p-ERK) is reported as “effectively inhibited”.
